Laboratory results from patent publication US20070054868A1, “Synergistic polyphenol compounds, compositions thereof, and uses thereof” (The Trustees of Columbia University in the City of New York, priority 2005, published 2007).

Tested on: EGFR, ERK1, ERK2, and AKT
Experiment: Phosphorylation of signaling proteins in HT29 cells
Type: cell-based, human
Description: These effects were detected with as little as […] of EGCG, and within 5 minutes. Phosphorylation of EGFR, ERK1, ERK2, and AKT were suppressed in cells treated with methyl-β-cyclodextrin, which depletes plasma membrane cholesterol. […] In addition, the inhibitory effect of EGCG on phosphorylation of EGFR was not blocked by the addition of cholesterol on the growth medium. These findings provide evidence that EGCG can alter membrane domain organization in colon cancer cells ant that this is not due to cholesterol depletion. It was noted that pre-treatment of the cells with EGCG or Poly E inhibited the binding of Alexa 488-labeled EGF to the cell surface receptor EGFR.

methyl-β-cyclodextrin [reference compound]
phosphorylation of EGFR, ERK1, ERK2, and AKT: suppressed
